#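 Results reflect a 48-hour exposure of cells in 96-well plates to compound at five concentrations. At the GI50, growth is halved.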 Active and inactive are the calls of the source. Rule as the data show it: active = GI50 up to about 1.1 µM and inactive = higher.
# What was measured:
# Test in all cases: inhibition of tumour cell growth, NCI panel, 48 h
# 786-0 = system: 786-0
# A498 = system: A498
# A549 = system: A549
# ACHN = system: ACHN
# CAKI-1 = system: CAKI-1
# CCRF-CEM = system: CCRF-CEM
# COLO 205 = system: COLO 205
# DLD-1 = system: DLD-1
# DMS-114 = system: DMS-114
# DMS-273 = system: DMS-273
# EKVX = system: EKVX
# HCC 2998 = system: HCC 2998
# HCT-116 = system: HCT-116
# HCT-15 = system: HCT-15
# HL-60 = system: HL-60
# HOP-62 = system: HOP-62
# HOP-92 = system: HOP-92
# HT-29 = system: HT-29
# IGROV-1 = system: IGROV-1
# K562 = system: K562
# KM-20L2 = system: KM-20L2
# KM12 = system: KM12
# LOX IMVI = system: LOX IMVI
# LXFL 529 = system: LXFL 529
# M14 = system: M14
# M19-MEL = system: M19-MEL
# MOLT-4 = system: MOLT-4
# Malme-3M = system: Malme-3M
# NCI-H226 = system: NCI-H226
# NCI-H23 = system: NCI-H23
# NCI-H460 = system: NCI-H460
# NCI-H522 = system: NCI-H522
# OVCAR-3 = system: OVCAR-3
# OVCAR-4 = system: OVCAR-4
# OVCAR-5 = system: OVCAR-5
# OVCAR-8 = system: OVCAR-8
# RPMI-8226 = system: RPMI-8226
# RXF 393 = system: RXF 393
# SF-268 = system: SF-268
# SF-295 = system: SF-295
# SF-539 = system: SF-539
# SK-MEL-28 = system: SK-MEL-28
# SK-MEL-2 = system: SK-MEL-2
# SK-MEL-5 = system: SK-MEL-5
# SK-OV-3 = system: SK-OV-3
# SN12C = system: SN12C
# SNB-19 = system: SNB-19
# SNB-75 = system: SNB-75
# SNB-78 = system: SNB-78
# SW-620 = system: SW-620
# TK-10 = system: TK-10
# U-251 = system: U-251
# UACC-257 = system: UACC-257
# UACC-62 = system: UACC-62
# UO-31 = system: UO-31
# XF498 = system: XF498
smiles,measurement,setting,value
OC(c1ccccn1)C1CNc2ccccc21 (stereo unspecified),GI50,786-0,> 100 µM (inactive)
same,GI50,A498,> 100 µM (inactive)
same,GI50,A549,> 100 µM (inactive)
same,GI50,ACHN,> 100 µM (inactive)
same,GI50,CAKI-1,> 100 µM (inactive)
same,GI50,CCRF-CEM,> 100 µM (inactive)
same,GI50,COLO 205,> 100 µM (inactive)
same,GI50,DLD-1,> 100 µM (inactive)
same,GI50,DMS-114,> 100 µM (inactive)
same,GI50,DMS-273,> 100 µM (inactive)
same,GI50,EKVX,> 100 µM (inactive)
same,GI50,HCC 2998,> 100 µM (inactive)
same,GI50,HCT-116,> 100 µM (inactive)
same,GI50,HCT-15,> 100 µM
same,GI50,HL-60,> 100 µM (inactive)
same,GI50,HOP-62,> 100 µM (inactive)
same,GI50,HOP-92,> 100 µM (inactive)
same,GI50,HT-29,> 100 µM (inactive)
same,GI50,IGROV-1,> 100 µM (inactive)
same,GI50,K562,> 100 µM (inactive)
same,GI50,KM-20L2,> 100 µM (inactive)
same,GI50,KM12,> 100 µM (inactive)
same,GI50,LOX IMVI,> 100 µM (inactive)
same,GI50,LXFL 529,> 100 µM (inactive)
same,GI50,M14,> 100 µM (inactive)
same,GI50,M19-MEL,> 100 µM (inactive)
same,GI50,MOLT-4,> 100 µM (inactive)
same,GI50,Malme-3M,> 100 µM (inactive)
same,GI50,NCI-H226,> 100 µM (inactive)
same,GI50,NCI-H23,> 100 µM (inactive)
same,GI50,NCI-H460,> 100 µM (inactive)
same,GI50,NCI-H522,> 100 µM (inactive)
same,GI50,OVCAR-3,> 100 µM (inactive)
same,GI50,OVCAR-4,> 100 µM (inactive)
same,GI50,OVCAR-5,> 100 µM (inactive)
same,GI50,OVCAR-8,> 100 µM (inactive)
same,GI50,RPMI-8226,> 100 µM (inactive)
same,GI50,RXF 393,> 100 µM (inactive)
same,GI50,SF-268,> 100 µM (inactive)
same,GI50,SF-295,> 100 µM (inactive)
same,GI50,SF-539,> 100 µM (inactive)
same,GI50,SK-MEL-28,> 100 µM (inactive)
same,GI50,SK-MEL-2,> 100 µM (inactive)
same,GI50,SK-MEL-5,> 100 µM (inactive)
same,GI50,SK-OV-3,> 100 µM (inactive)
same,GI50,SN12C,> 100 µM (inactive)
same,GI50,SNB-19,> 100 µM (inactive)
same,GI50,SNB-75,22.1 µM (inactive)
same,GI50,SNB-78,> 100 µM (inactive)
same,GI50,SW-620,> 100 µM (inactive)
same,GI50,TK-10,> 100 µM (inactive)
same,GI50,U-251,> 100 µM (inactive)
same,GI50,UACC-257,> 100 µM (inactive)
same,GI50,UACC-62,> 100 µM (inactive)
same,GI50,UO-31,> 100 µM (inactive)
same,GI50,XF498,> 100 µM (inactive)
